Assays:
aspirin-induced ulcer = experiment: Antiulcer activity against aspirin-induced ulcer model; type: in vivo, Wistar strain male rats; conditions: rats, 100 mg/kg p.o. 30 min before aspirin 200 mg/kg p.o.; for Aspirin Induced Ulcer Ulcer Index: stomach excised 7 h after aspirin; for inhibition in vivo at 100 mg/kg: Rattus norvegicus, po, 7 h, read-out: Aspirin Induced Ulcer Inhibition Rate
Description: Thirty minutes after administration, aspirin was further orally administered at a dose of 200 mg/kg. Seven hours after administration of aspirin, the stomach was excised under ethereal anesthesia and spotted and linear erosion and a long diameter of any ulcer were microscopically measured to determine an ulcer index and an inhibition rate.
(§1) In the control group, a 5% gum arabic aqueous solution was orally administered at a dose of 5 ml/kg.

gastric juice secretion = experiment: Gastric juice secretion inhibition activity (pyloric ligature); type: in vivo, Wistar strain male rats; conditions: rats, 100 mg/kg p.o.; for inhibition in vivo at 100 mg/kg: Rattus norvegicus, po, read-out: Volume Inhibition Rate
Description: A suspension of each test compound in a 5% gum arabic aqueous solution was orally given to Wistar strain male rats (at the age of 7 to 8 weeks, weighing 180 to 250 g; 7-9 rats in the group administered with the test compound; 14-17 rats in the control group) fasted for 24 hours at a dose of 100 mg of the test compound/5 ml/kg. Thirty minutes after administration, pyloric ligature was made under ethereal anesthesia. Four hours thereafter, the stomach was excised under ethereal anesthesia to collect gastric juice. The collected gastric juice was centrifuged (2500 rpm) at 4° C. for 10 minutes. After the supernatant was collected, the amount of the gastric juice and its pH were measured using a pH meter. Furthermore, the amount of free hydrochloric acid and the total acidity were measured with Topfer reagent and phenolphthalein reagent, respectively. Using a part of the gastric juice, pepsin output in the gastric juice was measured using casein as a substrate in a manner similar to the method of Anson et al.
as §1

[1] = test system: water-immersion stress ulcer; experiment: Antiulcer activity against water-immersion stress ulcer; type: in vivo, Wistar strain male rats; conditions: rats; for Water-Immersion Stress Ulcer Ulcer Index: 100 mg/kg p.o. 30 min before 6 h water immersion at 22°±1° C.; for inhibition in vivo at 100 mg/kg: Rattus norvegicus, po, 6 h, read-out: Water-Immersion Stress Ulcer Inhibition Rate
Description: A suspension of each test compound in a 5% gum arabic aqueous solution was orally given to Wistar strain male rats (at the age of 7 to 8 weeks, weighing 180 to 250 g; 7-9 rats in the group administered with the test compound; 10-16 rats in the control group) fasted for 24 hours at a dose of 100 mg of the test compound/5 ml/kg. Thirty minutes after administration, the animal was immersed in a water bath at 22°±1° C. up to the xiphisternum using a stress cage made by Tokyo University, Faculty of Pharmacology, to apply a stress load for 6 hours. After applying the stress load, the rats had the cervical vertebra dislocated to death. Then, the stomach was excised and, spotted and linear erosion and a long diameter of any ulcer were microscopically measured to determine an ulcer index and an inhibition rate.
as §1

ddy strain male mice = experiment: Acute toxicity; type: in vivo; conditions: 7 days observation
Description: A suspension of each test compound in a 5% gum arabic aqueous solution was orally given to ddy strain male mice (at the age of 4 to 5 weeks, weighing 25 to 35 g; 2 to 9 mice in one group). For 7 days after the administration, the mice were observed as to if they were dead or alive. Based on the number of deaths, the LD50 value was determined by the Probit method.

[2] = pyloric ligature 30 min later, gastric juice collected after 4 h
[3] = pyloric ligature, 4 h, first part of Table 5
[4] = 100 mg/kg p.o. 30 min before 6 h water immersion, vs control group
[5] = pyloric ligature, 4 h, second part of Table 5
[6] = 4 h, pyloric ligature, 4 h, vs control group

Row | Molecule | Aspirin Induced Ulcer Ulcer Index (aspirin-induced ulcer) | Volume (gastric juice) (gastric juice secretion; [2]) | Acidity (gastric juice secretion; pyloric ligature, 4 h) | Free HCl (gastric juice secretion; pyloric ligature, 4 h) | Pepsin Activity (gastric juice secretion; pyloric ligature, 4 h) | Pepsin Output (gastric juice secretion; pyloric ligature, 4 h) | pH (gastric juice) (gastric juice secretion; [3]) | Water-Immersion Stress Ulcer Ulcer Index [1] | Mortality (No. death/No. treated) (ddy strain male mice; 500 mg/kg p.o) | Mortality (No. death/No. treated) (ddy strain male mice; 1000 mg/kg p.o) | inhibition in vivo at 100 mg/kg (aspirin-induced ulcer; vs control group) | Acid Output (gastric juice secretion; [5]) | Free HCl (gastric juice secretion; [5]) | Pepsin Output (gastric juice secretion; [5]) | Volume (gastric juice) (gastric juice secretion; [5]) | pH (gastric juice) (gastric juice secretion; [5]) | inhibition in vivo at 100 mg/kg [1, 4] | inhibition in vivo at 100 mg/kg (gastric juice secretion; [6]) | further results
1 | 2-Methyl-3-thenoyloxymethylimidazo[2,1-b]benzothiazole [Example 19] | 63.7 ± 8.1 mm^2 | 4.9 ± 0.5 mL | 78.9 ± 2.7 mEq/l | 48.6 ± 3.4 mEq/l | 99.6 ± 2.2 units/ml | 122.8 ± 14.4 units/hr | 1.56 ± 0.10 | 11.3 ± 2.6 mm^2 | – | – | – | – | – | – | – | – | – | – | Aspirin Induced Ulcer Inhibition Rate (aspirin-induced ulcer; vs control group): 4.6%; Volume Inhibition Rate (gastric juice secretion; pyloric ligature, 4 h, vs control group): 18.3%; Water-Immersion Stress Ulcer Inhibition Rate [1, 4]: 51.5%
2 | Cc1nc2sc3ccccc3n2c1C(C)O (stereo not drawn) [Example 4, 3-(1-Hydroxyethyl)-2-methylimidazo[2,1-b]benzothiazole] | 8.0 ± 2.9 mm^2 | – | – | – | – | – | – | 7.3 ± 2.5 mm^2 | 0/5 | 0/5 | 88.7% | 30.8 ± 5.1 mcEq/100 g | 8.0 ± 2.9 mcEq/100 g | 9.9 ± 1.3 mg tyrosine/100 g | 0.69 ± 0.09 ml/100 g | 2.36 ± 0.21 | 69.2% | – | –
3 | CCCC(O)c1c(C)nc2sc3ccccc3n12 (stereo not drawn) [Example 5, 3(α-Hydroxy)butyl-2-methylimidazo[2,1-b]benzothiazole] | 43.8 ± 10.3 mm^2 | 6.7 ± 0.7 mL | 45.0 ± 5.6 mEq/l | 10.4 ± 2.1 mEq/l | 86.2 ± 1.9 units/ml | 139.6 ± 16.7 units/hr | 2.17 ± 0.12 | 20.4 ± 4.2 mm^2 | – | – | 23.7% | – | – | – | – | – | 5.1% | -13.6% | –
4 | Cc1nc2sc3ccccc3n2c1C(C)(C)O [Example 6, 3(α-Hydroxy-1-methyl)ethyl-2-methylimidazo[2,1-b]benzothiazole] | 55.1 ± 8.7 mm^2 | – | – | – | – | – | – | 11.7 ± 4.5 mm^2 | 0/5 | 0/5 | 22.3% | 169.9 ± 38.0 mcEq/100 g | 138.6 ± 37.3 mcEq/100 g | 23.4 mg tyrosine/100 g | 1.90 ± 0.33 ml/100 g | 1.24 ± 0.07 | 50.6% | – | –
5 | Cc1nc2sc3ccccc3n2c1C(O)c1ccccc1 (stereo not drawn) [Example 7, 3(αHydroxy)benzyl-2-methylimidazo[2,1-b]benzothiazole] | 39.6 ± 3.7 mm^2 | 5.4 ± 0.6 mL | 69.1 ± 7.0 mEq/l | 39.7 ± 5.0 mEq/l | 99.5 ± 4.1 units/ml | 135.0 ± 18.1 units/hr | 1.65 ± 0.13 | 17.9 ± 4.5 mm^2 | – | – | 31% | – | – | – | – | – | 16.7% | 8.5% | –
6 | COc1ccc2c(c1)sc1nc(C)c(CO)n12 [Example 9, 7-Methoxy-2-methylimidazo[2,1-b]benzothiazole-3-methanol] | 64.8 ± 7.5 mm^2 | 5.3 ± 0.9 mL | 76.2 ± 4.3 mEq/l | 42.6 ± 5.2 mEq/l | 102.2 ± 3.9 units/ml | 135.5 ± 22.7 units/hr | 1.55 ± 0.08 | 6.4 ± 1.2 mm^2 | – | – | 15% | – | – | – | – | – | 51.5% | 15.9% | –
7 | COc1cc2c(sc3nc(C)c(CO)n32)c(OC)c1OC [Example 10, 6,7,8-Trimethoxy-2-methylimidazo[2,1-b]benzothiazole-3-methanol] | 53.7 ± 8.3 mm^2 | 5.2 ± 0.5 mL | 87.3 ± 3.5 mEq/l | 50.4 ± 3.2 mEq/l | 103.5 ± 1.8 units/ml | 133.7 ± 10.8 units/hr | 1.47 ± 0.03 | 9.6 ± 2.1 mm^2 | – | – | 29.5% | – | – | – | – | – | 27.3% | 17.5% | –
8 | Cc1nc2sc3ccccc3n2c1COC(C)C.Cl [Example 13, 2-Methylimidazo[2,1-b]benzothiazole-3-methanol isopropyl ether hydrochloride] | 24.4 ± 3.3 mm^2 | – | – | – | – | – | – | – | 0/5 | 5/5 | 71% | 57.6 ± 16.4 mcEq/100 g | 22.3 ± 10.7 mcEq/100 g | 13.0 ± 2.3 mg tyrosine/100 g | 1.29 ± 0.23 ml/100 g | 2.70 ± 0.53 | – | – | –
9 | COc1ccccc1C(=O)OCc1c(C)nc2sc3ccccc3n12 [Example 18] | 45.3 ± 10.4 mm^2 | 8.1 ± 0.8 mL | 82.1 ± 5.0 mEq/l | 51.7 ± 5.8 mEq/l | 91.4 ± 3.3 units/ml | 186.6 ± 24.3 units/hr | 1.45 ± 0.06 | 13.5 ± 4.1 mm^2 | – | – | 32.2% | – | – | – | – | – | 42.1% | -35% | –
10 | CCNC(=O)OCc1c(C)nc2sc3ccccc3n12 [Example 20, 2-Methylimidazo[2,1-b]benzothiazole 3-methyl ethyl carbamate] | 56.2 ± 6.8 mm^2 | 5.9 ± 0.3 mL | 54.5 ± 7.0 mEq/l | 26.1 ± 5.5 mEq/l | 91.6 ± 1.7 units/ml | 136.0 ± 7.2 units/hr | 1.89 ± 0.12 | 4.0 ± 1.3 mm^2 | – | – | 26.2% | – | – | – | – | – | 69.7% | 6.3% | –
